Counter-ions that a name gives are not always drawn.
Target: T1, Solute carrier organic anion transporter family member 2B1 (OATP2B1) (Homo sapiens, UniProt O94956)
T1 sequence (O94956 whole entry): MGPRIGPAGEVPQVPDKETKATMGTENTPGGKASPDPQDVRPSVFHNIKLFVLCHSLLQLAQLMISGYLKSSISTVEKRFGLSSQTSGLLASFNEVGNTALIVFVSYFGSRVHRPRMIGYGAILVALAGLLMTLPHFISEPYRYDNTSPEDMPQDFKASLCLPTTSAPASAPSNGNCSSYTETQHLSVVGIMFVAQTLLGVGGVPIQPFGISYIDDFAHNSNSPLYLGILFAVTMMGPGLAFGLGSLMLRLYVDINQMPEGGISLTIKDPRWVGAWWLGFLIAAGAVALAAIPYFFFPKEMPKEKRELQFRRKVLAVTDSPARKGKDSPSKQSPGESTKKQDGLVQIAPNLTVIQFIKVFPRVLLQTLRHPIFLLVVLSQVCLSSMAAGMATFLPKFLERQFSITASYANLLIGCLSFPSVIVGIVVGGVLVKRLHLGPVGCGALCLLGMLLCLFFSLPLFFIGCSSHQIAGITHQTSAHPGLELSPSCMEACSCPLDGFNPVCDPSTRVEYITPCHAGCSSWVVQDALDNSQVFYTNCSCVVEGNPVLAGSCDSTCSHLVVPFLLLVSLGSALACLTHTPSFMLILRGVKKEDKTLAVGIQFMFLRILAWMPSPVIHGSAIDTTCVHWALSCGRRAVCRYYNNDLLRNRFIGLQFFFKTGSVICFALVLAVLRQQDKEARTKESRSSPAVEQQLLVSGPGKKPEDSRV
Assay: TP_TRANSPORTER: inhibition of Estrone-3-sulfate uptake (Estrone-3-sulfate: 1 uM, Pregnenolone sulfate: 100 uM) in Xenopus laevis oocytes
Type: functional, cell-based, Oocyte
Settings: Xenopus laevis oocytes expressing OATP2B1 (SLCO2B1), probe Estrone-3-sulfate (1 uM)

`CC(=O)[C@H]1CC[C@H]2[C@@H]3CC=C4C[C@@H](OS(=O)(=O)O)CC[C@]4(C)[C@H]3CC[C@]12C` [PREGNENOLONE SULFATE] was tested, and the inhibition at 100 µM was 83%.
